Legend:
Assay type in all cases: in vivo
Eclipta prostrata = test: Greenhouse herbicidal activity assay, post-emergence; conditions: Post-emergence test, rate 150 g a.i./hm^2; grade by fresh weight inhibition rate
Procedure, shortened: (§1)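 Weeds were sown in nutrient soil in 7 cm pots and grown in a growth chamber to the 3-6 leaf stage, then foliar-sprayed, air-dried and returned to the chamber. Fresh weight inhibition was scored 14-21 days later in bands from A (≥80% to 100%) to E (<20%).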

Leptochloa chinensis [1] = test: as above; conditions: Post-emergence test, rate 150 g a.i./hm^2; grade by fresh weight inhibition rate
Procedure, shortened: as §1

Echinochloa crusgalli [2] = test: as above; conditions: Post-emergence test, rate 150 g a.i./hm^2; grade by fresh weight inhibition rate
Procedure, shortened: as §1

Cyperus iria = test: as above; conditions: Post-emergence test, rate 150 g a.i./hm^2; grade by fresh weight inhibition rate
Procedure, shortened: as §1

Digitaria sanguinalis = test: as above; conditions: Post-emergence test, rate 150 g a.i./hm^2; grade by fresh weight inhibition rate
Procedure, shortened: as §1

[3] = tested on: Oryza sativa subsp. indica; test: Greenhouse herbicidal activity and crop safety comparison (Test Example 2); conditions: Rate 150 g/ha
Procedure, shortened: (§2)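 Fresh weight inhibition, banded into grades A to E (E <20%), was rated 14-21 days after foliar spraying of 3-6 leaf plants, or 14-30 days after a soil spray applied 24 h post-sowing.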

Leptochloa chinensis [4] = test: as above; conditions: Rate 150 g/ha
Procedure, shortened: as §2

Echinochloa crusgalli [5] = test: as above; conditions: Rate 150 g/ha
Procedure, shortened: as §2

[6] = tested on: Oryza sativa subsp. japonica; test: as above; conditions: Rate 150 g/ha
Procedure, shortened: as §2

Row | SMILES | Control efficacy grade, Eclipta prostrata (Eclipta prostrata) | Control efficacy grade, Leptochloa chinensis (Leptochloa chinensis [1]) | Control efficacy grade, Echinochloa crusgalli (Echinochloa crusgalli [2]) | Control efficacy grade, Cyperus iria (Cyperus iria) | Control efficacy grade, Digitaria sanguinalis (Digitaria sanguinalis) | Oryza sativa subsp. indica, grading of fresh weight inhibition rate (crop safety) [3] | Leptochloa chinensis, control efficacy grading (fresh weight inhibition rate) (Leptochloa chinensis [4]) | Echinochloa crusgalli, control efficacy grading (fresh weight inhibition rate) (Echinochloa crusgalli [5]) | Oryza sativa subsp. japonica, grading of fresh weight inhibition rate (crop safety) [6]
1 | C=CCS(=O)(=O)c1c(S(C)(=O)=O)ccc(C(=O)Nc2nnco2)c1Cl [Compound 3-342] | A (Fresh weight inhibition rate≥80% to 100%) | A (Fresh weight inhibition rate≥80% to 100%) | A (Fresh weight inhibition rate≥80% to 100%) | A (Fresh weight inhibition rate≥80% to 100%) | A (Fresh weight inhibition rate≥80% to 100%) | E (Fresh weight inhibition rate<20%) | A (Fresh weight inhibition rate≥80% to 100%) | A (Fresh weight inhibition rate≥80% to 100%) | E (Fresh weight inhibition rate<20%)
2 | CS(=O)(=O)c1ccc(C(=O)Nc2nnco2)c(Cl)c1S(=O)(=O)C1CCCC1 [Compound 3-317] | A (Fresh weight inhibition rate≥80% to 100%) | A (Fresh weight inhibition rate≥80% to 100%) | A (Fresh weight inhibition rate≥80% to 100%) | A (Fresh weight inhibition rate≥80% to 100%) | A (Fresh weight inhibition rate≥80% to 100%) | E (Fresh weight inhibition rate<20%) | A (Fresh weight inhibition rate≥80% to 100%) | A (Fresh weight inhibition rate≥80% to 100%) | E (Fresh weight inhibition rate<20%)
3 | CS(=O)(=O)c1ccc(C(=O)Nc2nnco2)c(Cl)c1S(=O)(=O)CC1CC1 [Compound 3-302] | A (Fresh weight inhibition rate≥80% to 100%) | A (Fresh weight inhibition rate≥80% to 100%) | A (Fresh weight inhibition rate≥80% to 100%) | A (Fresh weight inhibition rate≥80% to 100%) | A (Fresh weight inhibition rate≥80% to 100%) | E (Fresh weight inhibition rate<20%) | A (Fresh weight inhibition rate≥80% to 100%) | A (Fresh weight inhibition rate≥80% to 100%) | E (Fresh weight inhibition rate<20%)
4 | CCC(C)S(=O)(=O)c1c(S(C)(=O)=O)ccc(C(=O)Nc2nnc(C3CC3)o2)c1Cl (racemic) [Compound 3-638] | A (Fresh weight inhibition rate≥80% to 100%) | A (Fresh weight inhibition rate≥80% to 100%) | A (Fresh weight inhibition rate≥80% to 100%) | A (Fresh weight inhibition rate≥80% to 100%) | B (Fresh weight inhibition rate≥260% to <80%) | E (Fresh weight inhibition rate<20%) | A (Fresh weight inhibition rate≥80% to 100%) | A (Fresh weight inhibition rate≥80% to 100%) | E (Fresh weight inhibition rate<20%)
5 | Cc1nnc(NC(=O)c2ccc(S(C)(=O)=O)c(S(=O)(=O)CC(F)(F)F)c2Cl)o1 [Compound 3-101] | A (Fresh weight inhibition rate≥80% to 100%) | A (Fresh weight inhibition rate≥80% to 100%) | A (Fresh weight inhibition rate≥80% to 100%) | A (Fresh weight inhibition rate≥80% to 100%) | A (Fresh weight inhibition rate≥80% to 100%) | E (Fresh weight inhibition rate<20%) | A (Fresh weight inhibition rate≥80% to 100%) | A (Fresh weight inhibition rate≥80% to 100%) | E (Fresh weight inhibition rate<20%)
6 | CCCS(=O)(=O)c1c(S(C)(=O)=O)ccc(C(=O)Nc2nnc(CC)o2)c1Cl [Compound 3-387] | A (Fresh weight inhibition rate≥80% to 100%) | A (Fresh weight inhibition rate≥80% to 100%) | A (Fresh weight inhibition rate≥80% to 100%) | A (Fresh weight inhibition rate≥80% to 100%) | A (Fresh weight inhibition rate≥80% to 100%) | E (Fresh weight inhibition rate<20%) | A (Fresh weight inhibition rate≥80% to 100%) | A (Fresh weight inhibition rate≥80% to 100%) | E (Fresh weight inhibition rate<20%)
7 | C=CCS(=O)(=O)c1c(S(C)(=O)=O)ccc(C(=O)Nc2nnc(C(C)C)o2)c1Cl [Compound 3-574] | A (Fresh weight inhibition rate≥80% to 100%) | A (Fresh weight inhibition rate≥80% to 100%) | A (Fresh weight inhibition rate≥80% to 100%) | A (Fresh weight inhibition rate≥80% to 100%) | B (Fresh weight inhibition rate≥260% to <80%) | E (Fresh weight inhibition rate<20%) | A (Fresh weight inhibition rate≥80% to 100%) | A (Fresh weight inhibition rate≥80% to 100%) | E (Fresh weight inhibition rate<20%)
8 | CS(=O)(=O)c1ccc(C(=O)Nc2nnc(C3CC3)o2)c(Cl)c1S(=O)(=O)C1CC1 [Compound 3-655] | A (Fresh weight inhibition rate≥80% to 100%) | A (Fresh weight inhibition rate≥80% to 100%) | A (Fresh weight inhibition rate≥80% to 100%) | A (Fresh weight inhibition rate≥80% to 100%) | A (Fresh weight inhibition rate≥80% to 100%) | E (Fresh weight inhibition rate<20%) | A (Fresh weight inhibition rate≥80% to 100%) | A (Fresh weight inhibition rate≥80% to 100%) | E (Fresh weight inhibition rate<20%)
